Data published in US7855290B2, “Pyridine derivatives and pyrimidine derivatives (3)” (Eisai R&D Management Co., Ltd., priority 2005, dated 2010).
pIC50: −log10 of the molar value.

Target: T1, His6-HGFR (HGFR cytoplasmic domain) (Homo sapiens, UniProt P08581)
T1 construct: made in house; host or cells: Sf9 insect cells (Spodoptera frugiperda), baculovirus, pFastBac-HT vector
Test: Inhibitory activity against HGFR tyrosine kinase activity (HTRF)
Assay type: biochemical
Conditions: biotin-poly(GT), ATP, 30° C. 10 min
Summary of the method: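 Sf9-expressed, Ni-NTA-purified N-terminal His6-tagged HGFR cytoplasmic domain (from Lys974), 30 ng, phosphorylates 250 ng biotin-poly(GT) in Hepes pH 7.4 with MgCl2, MnCl2 and Na3VO4. Reaction started with 4 μM ATP stock, run 10 min at 30° C, stopped with EDTA. Phosphotyrosine is detected by HTRF.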

T1 sequence (P08581 956-1390 limits assumed): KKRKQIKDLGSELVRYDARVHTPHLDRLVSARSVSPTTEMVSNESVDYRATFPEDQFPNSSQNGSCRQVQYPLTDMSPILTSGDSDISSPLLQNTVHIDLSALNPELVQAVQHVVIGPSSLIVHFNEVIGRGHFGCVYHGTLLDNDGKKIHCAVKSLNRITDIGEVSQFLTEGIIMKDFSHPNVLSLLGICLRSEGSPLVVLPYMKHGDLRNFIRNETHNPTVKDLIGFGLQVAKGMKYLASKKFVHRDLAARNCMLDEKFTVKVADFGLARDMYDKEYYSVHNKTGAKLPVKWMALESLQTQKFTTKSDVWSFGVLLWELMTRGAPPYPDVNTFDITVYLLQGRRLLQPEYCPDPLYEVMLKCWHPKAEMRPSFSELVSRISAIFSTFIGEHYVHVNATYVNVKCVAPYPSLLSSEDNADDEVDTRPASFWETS

Compound	pIC50
CN(C)CC1CCN(C(=O)Nc2cc(Oc3ccc(NC(=O)C4(C(=O)Nc5ccc(F)cc5)CC4)cc3F)ccn2)CC1 [Example 5, N-[4-({2-[({4-[(Dimethylamino)methyl]piperidin-1-yl}carbonyl)amino]pyridin-4-yl}oxy)-3-fluorophenyl]-N′-(4-fluorophenyl)cyclopropane-1,1-dicarboxamide]	7.22
O=C(Nc1cc(Oc2ccc(NC(=O)C3(C(=O)Nc4ccc(F)cc4)CC3)c(F)c2)ccn1)N1CCC(O)CC1 [Example 82, N-[2-Fluoro-4-[(2-{[(4-hydroxypiperidin-1-yl)carbonyl]amino}pyridin-4-yl)oxy]phenyl}-N′-(4-fluorophenyl)cyclopropane-1,1-dicarboxamide]	7.80
O=C(Nc1cc(Oc2ccc(NC(=O)C3(C(=O)Nc4ccc(F)cc4)CC3)cc2F)ccn1)N1CCC(CO)CC1 [Example 85, N-(3-Fluoro-4-{[2-({[-4-(hydroxymethyl)piperidin-1-yl]carbonyl}amino)pyridin-4-yl]oxy}phenyl)-N′-(4-fluorophenyl)cyclopropane-1,1-dicarboxamide]	7.82
O=C(Nc1cc(Oc2ccc(NC(=O)C3(C(=O)Nc4ccc(F)cc4)CC3)c(F)c2)ccn1)N1CC[C@@H](O)C1 [Example 87, N-(2-Fluoro-4-{[2-({[(3R)-3-hydroxypyrrolidin-1-yl]carbonyl}amino)pyridin-4-yl]oxy}phenyl)-N′-(4-fluorophenyl)cyclopropane-1,1-dicarboxamide]	8.05
O=C(Nc1cc(Oc2ccc(NC(=O)C3(C(=O)Nc4ccc(F)cc4)CC3)c(F)c2)ccn1)N1CC[C@H](O)C1 [Example 89, N-(2-Fluoro-4-{[2-({[(3S)-3-hydroxypyrrolidin-1-yl]carbonyl}amino)pyridin-4-yl]oxy}phenyl)-N′-(4-fluorophenyl)cyclopropane-1,1-dicarboxamide]	7.89
O=C(Nc1cc(Oc2cc(F)c(NC(=O)C3(C(=O)Nc4ccc(F)cc4)CC3)cc2F)ccn1)N1CCC1 [Example 90, N-[4-({2-[(Azetidin-1-ylcarbonyl)amino]pyridin-4-yl}oxy)-2,5-difluorophenyl]-N′-(4-fluorophenyl)cyclopropane-1,1-dicarboxamide]	7.92
O=C(Nc1cc(Oc2cc(F)c(NC(=O)C3(C(=O)Nc4ccc(F)cc4)CC3)cc2F)ccn1)N1CC(CN2CCC2)C1 [Example 95, N-{4-[(2-{[3-(Azetidin-1-ylmethyl)azetidin-1-ylcarbonyl]amino}pyridin-4-yl)oxy]-2,5-difluorophenyl}-N′-(4-fluorophenyl)cyclopropane-1,1-dicarboxamide]	7.30
O=C(Nc1cc(Oc2cc(F)c(NC(=O)C3(C(=O)Nc4ccc(F)cc4)CC3)cc2F)ncn1)N1CC(O)C1 [Example 97, N-{2,5-Difluoro-4-[(4-{[(3-hydroxyazetidin-1-yl)carbonyl]amino}pyrimidin-6-yl)oxy]phenyl}-N′-(4-fluorophenyl)cyclopropane-1,1-dicarboxamide]	7.68
CN(C)CC1CN(C(=O)Nc2cc(Oc3cc(F)c(NC(=O)C4(C(=O)Nc5ccc(F)cc5)CC4)cc3F)ncn2)C1 [Example 98, N-[4-({4-[({3-[(Dimethylamino)methyl]azetidin-1-yl}carbonyl)amino]pyrimidin-6-yl}oxy)-2,5-difluorophenyl]-N′-(4-fluorophenyl)cyclopropane-1,1-dicarboxamide]	7.17

Results, then the compound that gave them:

pIC50	Compound
7.72	O=C(Nc1cc(Oc2ccc(NC(=O)C3(C(=O)Nc4ccc(F)cc4)CC3)cc2F)ccn1)N1CC(CO)C1 [Example 81, N-(3-Fluoro-4-{[2-({[3-(hydroxymethyl)azetidin-1-yl]carbonyl}amino)pyridin-4-yl]oxy}phenyl)-N′-(4-fluorophenyl)cyclopropane-1,1-dicarboxamide]
7.77	O=C(Nc1cc(Oc2ccc(NC(=O)C3(C(=O)Nc4ccc(F)cc4)CC3)c(F)c2)ccn1)N1CCC(CO)CC1 [Example 83, N-(2-Fluoro-4-{[2-({[4-(hydroxymethyl)piperidin-1-yl]carbonyl}amino)pyridin-4-yl]oxy}phenyl)-N′-(4-fluorophenyl)cyclopropane-1,1-dicarboxamide]
8.05	O=C(Nc1cc(Oc2ccc(NC(=O)C3(C(=O)Nc4ccc(F)cc4)CC3)cc2F)ccn1)N1CCC(O)CC1 [Example 84, N-[3-Fluoro-4-[(2-{[(4-hydroxypiperidin-1-yl)carbonyl]amino}pyridin-4-yl)oxy]phenyl}-N′-(4-fluorophenyl)cyclopropane-1,1-dicarboxamide]
7.92	O=C(Nc1cc(Oc2ccc(NC(=O)C3(C(=O)Nc4ccc(F)cc4)CC3)cc2F)ccn1)N1CC[C@@H](O)C1 [Example 86, N-(3-Fluoro-4-{[2-({[(3R)-3-hydroxypyrrolidin-1-yl]carbonyl}amino)pyridin-4-yl]oxy}phenyl)-N′-(4-fluorophenyl)cyclopropane-1,1-dicarboxamide]
7.80	O=C(Nc1cc(Oc2ccc(NC(=O)C3(C(=O)Nc4ccc(F)cc4)CC3)cc2F)ccn1)N1CC[C@H](O)C1 [Example 88, N-(3-Fluoro-4-{[2-({[(3S)-3-hydroxypyrrolidin-1-yl]carbonyl}amino)pyridin-4-yl]oxy}phenyl)-N′-(4-fluorophenyl)cyclopropane-1,1-dicarboxamide]
7.33	CN1CCN(C2CCN(C(=O)Nc3cc(Oc4cc(F)c(NC(=O)C5(C(=O)Nc6ccc(F)cc6)CC5)cc4F)ccn3)CC2)CC1 [Example 92, N-(2,5-Difluoro-4-{[2-({[4-(4-methylpiperazin-1-yl)piperidin-1-yl]carbonyl}amino)pyridin-4-yl]oxy}phenyl)-N′-(4-fluorophenyl)cyclopropane-1,1-dicarboxamide]
7.38	CN(C)CC1CN(C(=O)Nc2cc(Oc3cc(F)c(NC(=O)C4(C(=O)Nc5ccc(F)cc5)CC4)cc3F)ccn2)C1 [Example 93, N-[2,5-Difluoro-4-({2-[({3-[(dimethylamino)methyl]azetidin-1-yl]carbonyl)amino]pyridin-4-yl}oxy)phenyl]-N′-(4-fluorophenyl)cyclopropane-1,1-dicarboxamide]
7.77	O=C(Nc1cc(Oc2cc(F)c(NC(=O)C3(C(=O)Nc4ccc(F)cc4)CC3)cc2F)ccn1)N1CC(CO)C1 [Example 96, N-(2,5-Difluoro-4-{[2-({[3-(hydroxymethyl)azetidin-1-yl]carbonyl}amino)pyridin-4-yl]oxy}phenyl)-N′-(4-fluorophenyl)cyclopropane-1,1-dicarboxamide]
